{
  "source": "paper PMC9024363",
  "about": "“Study on the Biochemical Characterization and Selectivity of Three β-Glucosidases From Bifidobacterium adolescentis ATCC15703” (Frontiers in Microbiology, 2022)",
  "assay_type_in_all_cases": "biochemical",
  "key": {"BaBgl3A": {"biological_target": "T1, BaBgl3A (Bifidobacterium adolescentis, UniProt A1A2P2)", "T1 construct": "gene BAD_1194; GH3; N-terminus from primer MSENTY", "T1 sequence (A1A2P2 1-751)": "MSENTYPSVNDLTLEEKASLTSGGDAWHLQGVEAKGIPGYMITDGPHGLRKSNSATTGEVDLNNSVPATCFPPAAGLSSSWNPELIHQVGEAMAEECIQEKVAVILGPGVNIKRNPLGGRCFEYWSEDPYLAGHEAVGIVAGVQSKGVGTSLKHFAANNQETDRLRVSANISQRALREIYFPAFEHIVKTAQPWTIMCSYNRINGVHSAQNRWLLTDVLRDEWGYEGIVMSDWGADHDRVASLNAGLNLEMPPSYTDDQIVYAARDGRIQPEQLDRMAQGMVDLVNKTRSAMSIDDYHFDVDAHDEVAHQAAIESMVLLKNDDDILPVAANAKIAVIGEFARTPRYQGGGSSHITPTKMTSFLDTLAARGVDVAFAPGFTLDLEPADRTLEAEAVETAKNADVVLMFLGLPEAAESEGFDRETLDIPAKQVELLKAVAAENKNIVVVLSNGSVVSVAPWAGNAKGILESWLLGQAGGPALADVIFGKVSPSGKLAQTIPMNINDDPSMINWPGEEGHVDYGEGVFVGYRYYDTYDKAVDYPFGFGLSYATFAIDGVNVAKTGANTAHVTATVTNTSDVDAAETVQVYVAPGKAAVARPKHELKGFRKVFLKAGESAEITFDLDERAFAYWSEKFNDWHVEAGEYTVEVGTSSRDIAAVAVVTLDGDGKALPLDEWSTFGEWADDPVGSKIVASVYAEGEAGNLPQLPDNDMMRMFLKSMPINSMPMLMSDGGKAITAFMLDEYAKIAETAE", "experiment": "TLC and HPLC of products", "conditions": "optimum pH, 37 °C, 2 h; 5 mg/ml substrate"}, "BaBgl1A [1]": {"biological_target": "T2, BaBgl1A (Bifidobacterium adolescentis, UniProt A1A2Y5)", "T2 construct": "gene BAD_1287; GH1; N-terminus from primer MKEQYE", "T2 sequence (A1A2Y5 1-391)": "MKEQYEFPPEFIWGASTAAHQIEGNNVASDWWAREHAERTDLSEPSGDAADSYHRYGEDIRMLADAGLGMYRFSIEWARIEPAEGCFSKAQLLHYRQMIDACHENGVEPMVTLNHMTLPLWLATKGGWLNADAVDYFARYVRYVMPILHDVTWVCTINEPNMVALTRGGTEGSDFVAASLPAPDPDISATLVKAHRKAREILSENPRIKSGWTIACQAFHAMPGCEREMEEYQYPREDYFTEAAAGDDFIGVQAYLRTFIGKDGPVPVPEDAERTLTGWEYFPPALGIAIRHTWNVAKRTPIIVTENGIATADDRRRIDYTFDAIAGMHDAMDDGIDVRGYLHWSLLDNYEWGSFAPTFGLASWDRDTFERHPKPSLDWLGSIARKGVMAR", "experiment": "pNPβGlc hydrolysis, absorbance […] nm", "conditions": "competitive; pNPβGlc substrate; optimum pH 6.0, 30 °C"}, "BaBgl3B [2]": {"biological_target": "T3, BaBgl3B (Bifidobacterium adolescentis, UniProt A1A2P5)", "T3 construct": "gene bglX; GH3; N-terminus from primer MSSCGC", "T3 sequence (A1A2P5 1-809)": "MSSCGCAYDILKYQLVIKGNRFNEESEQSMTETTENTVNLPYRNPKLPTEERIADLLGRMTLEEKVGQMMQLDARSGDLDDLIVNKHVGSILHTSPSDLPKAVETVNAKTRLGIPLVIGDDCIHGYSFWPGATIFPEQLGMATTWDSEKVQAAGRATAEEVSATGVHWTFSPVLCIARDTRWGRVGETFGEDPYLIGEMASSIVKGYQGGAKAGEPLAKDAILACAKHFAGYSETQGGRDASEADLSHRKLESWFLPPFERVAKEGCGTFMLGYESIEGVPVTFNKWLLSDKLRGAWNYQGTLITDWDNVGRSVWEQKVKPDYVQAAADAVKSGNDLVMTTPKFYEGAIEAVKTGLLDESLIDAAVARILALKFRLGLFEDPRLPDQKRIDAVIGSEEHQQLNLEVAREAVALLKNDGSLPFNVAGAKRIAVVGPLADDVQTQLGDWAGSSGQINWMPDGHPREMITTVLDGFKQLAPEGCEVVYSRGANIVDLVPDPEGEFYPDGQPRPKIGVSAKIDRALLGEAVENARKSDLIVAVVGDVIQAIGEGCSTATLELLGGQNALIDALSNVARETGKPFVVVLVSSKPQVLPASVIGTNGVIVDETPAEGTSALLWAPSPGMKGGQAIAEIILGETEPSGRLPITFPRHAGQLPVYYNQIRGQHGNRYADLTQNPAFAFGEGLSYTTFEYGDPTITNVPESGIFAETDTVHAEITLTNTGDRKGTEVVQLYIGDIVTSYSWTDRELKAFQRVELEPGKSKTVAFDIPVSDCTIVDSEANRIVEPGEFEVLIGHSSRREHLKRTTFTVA", "experiment": "pNPβGlc hydrolysis, absorbance […] nm", "conditions": "competitive; pNPβGlc substrate; optimum pH 6.5, 50 °C"}, "BaBgl1A [3]": {"biological_target": "T2, BaBgl1A", "experiment": "pNPβGlc hydrolysis, absorbance […] nm"}, "BaBgl3B [4]": {"biological_target": "T3, BaBgl3B", "experiment": "pNPβGlc hydrolysis, absorbance […] nm"}},
  "data": [
    {"smiles": "CC(C)=CCC[C@](C)(O[C@@H]1O[C@H](CO[C@@H]2O[C@H](CO)[C@@H](O)[C@H](O)[C@H]2O)[C@@H](O)[C@H](O)[C@H]1O)[C@H]1CC[C@]2(C)[C@@H]1[C@H](O)C[C@@H]1[C@@]3(C)CC[C@H](O[C@@H]4O[C@H](CO)[C@@H](O)[C@H](O)[C@H]4O[C@@H]4O[C@H](CO)[C@@H](O)[C@H](O)[C@H]4O)C(C)(C)[C@@H]3CC[C@]12C", "note": "[Rb1]", "values": [
      {"measurement": "TLC and HPLC of products", "setting": "BaBgl3A", "result": "Rb1 could be converted into Rd and Gyp XVII by BaBgl3A"}
    ]},
    {"smiles": "OCC1(O)OC[C@@H](O)[C@@H](O)[C@@H]1O", "note": "(some centres unmarked) [fructose]", "values": [
      {"measurement": "% inhibition", "setting": "BaBgl1A [1]", "result": "mannose and fructose acted as competitive inhibitors for BaBgl1A and BaBgl3B"},
      {"measurement": "% inhibition", "setting": "BaBgl3B [2]", "result": "mannose and fructose acted as competitive inhibitors for BaBgl1A and BaBgl3B"}
    ]},
    {"smiles": "OC[C@H]1OC(O)[C@@H](O)[C@@H](O)[C@@H]1O", "note": "(some centres unmarked) [mannose]", "values": [
      {"measurement": "inhibition at 1 M", "setting": "BaBgl1A [3]", "result": "> 70", "unit": "%"},
      {"measurement": "inhibition at 1 M", "setting": "BaBgl3B [4]", "result": "> 70", "unit": "%"}
    ]}
  ]
}
